Test system: term pregnant, nulliparous women with an unripe cervix
Assay: Clinical phase II trial PPL17 (Parts A and B), subcutaneous tafoxiparin vs placebo
Format: in vivo, human
Details: for Labor induced with PGE-1, % of women: placebo 10.2%; for Fetal distress as indication for operative delivery (ODFD), % of women: placebo 22.7%; for patients with operative delivery, % / women needing instrumental delivery (FIG. 4, vaginal mode of partus): placebo 45.5%; for Labor induced with amniotomy, % of women: placebo 56.8%; for Labor induction with Balloon catheter, % of women: placebo 58.0%; for Labor induced, % of women: placebo 70.5%; for women needing instrumental delivery or caesarian section to reach partus (FIG. 5): placebo 52%; for women reaching partus by vaginal delivery with no need for instrumental delivery nor caesarian section (FIG. 5): placebo 48%; for number of subjects (women) that reach spontaneous onset of labor / subjects (women) that reach spontaneous onset of labor, % of n: cumulative, n = 37
Method: A clinical phase II trial is performed as a randomized, double-blind, placebo-controlled, parallel-group proof of concept study (Part A) with a conditional dose finding follow up study (Part B) to evaluate the efficacy, safety, tolerability and dose response of subcutaneously administered tafoxiparin as a supplement to induction therapy in term pregnant, nulliparous women with an unripe cervix. The study is performed in Sweden and Finland (PPL17), and an EMA (European Medicines Agency) description of the study can be found on the EU Clinical Trials Register web (www.clinicaltrialsregister.eu/ctr-search/search?query=PPL17).
A total of 170 term pregnant women are randomized to receive either 300 mg of tafoxiparin, or corresponding placebo (vehicle), administered subcutaneously every 24±3 hours and up to a total of 7 doses, or until partus (Part A).
In the dose finding follow up study (Part B), a total of 164 term pregnant women are randomized to receive either 75 or 150 mg of tafoxiparin administered subcutaneously every 24±3 hours […] and up to a total of 7 doses, or until partus.
To assess the efficacy of tafoxiparin on cervical ripening/cervical ripening rate, during and up to the first seven days of treatment, measured by Bishop score. All women must be examined to check the cervical state before enrollment.
Tafoxiparin/Placebo is supplied by Dilafor AB to the site as kits designed to constitute 300 mg of tafoxiparin or placebo for daily administration. Apart from the active substance, each ml of study drug will constitute 0.015 M phosphate buffer. The study medication kit for each patient will contain 8 doses consisting of 2 vials containing a minimum extractable volume of 1.6 ml of 150 mg/ml of tafoxiparin or placebo. One dose is a reserve dose in case a dose is rendered unusable. The investigational product should be administered subcutaneously every 24±3 hours by the site staff for up to 7 doses, or until partus. At each dosing time 1.0 ml of the drug will be extracted from each of the 2 vials and injected as separate s.c. injections in the abdominal or hip region.
Tafoxiparin/Placebo is supplied by Dilafor AB to the site as kits designed to constitute 75 or 150 mg of tafoxiparin for daily administration. Apart from the active substance, each ml of study drug will constitute 0.015 M phosphate buffer. The study medication kit for each patient will contain 8 doses consisting of 2 vials for each injection occasion containing a minimum extractable volume of 1.6 ml of 150 mg/ml of tafoxiparin or placebo. For subjects receiving 75 mg of tafoxiparin, one vial will contain active substance and one containing placebo. For subjects receiving 150 mg of tafoxiparin, both vials will contain active substance. One dose is a reserve dose in case a dose is rendered unusable. The investigational product should be administered subcutaneously every 24±3 hours by the site staff for up to 7 doses, or until partus. At each dosing time, 0.5 ml of the drug will be extracted from each of the 2 vials and injected as separate s.c. injections in the abdominal or hip region.
If the subject is found to be eligible for the study, they will be randomized to study treatment, i.e. 300 mg of tafoxiparin or corresponding placebo daily (Part A), or 75 or 150 mg daily (Part B).
The study medication will be administered subcutaneously in the abdominal or hip region for up to a total of 7 doses or until labor induction or spontaneous onset of labor. If the cervix is still unripe after 7 doses of IMP, the patient is given cervical balloon catheter as a mean of labor induction.
Subjects who enter into spontaneous onset of labor after 1-7 doses of IMP should be managed according to clinical routines.
Subjects who are given 4-7 doses without entering into spontaneous onset of labor, but with a ripe cervix (Bishop Score ≥6), should be induced into labor by amniotomy and oxytocin treatment, but not before 4 treatment doses have been given. […]

tafoxiparin
Labor induced with oxytocin, number of women (150 mg, n = 85): 38
Labor induced, number of women (150 mg, n = 85): 48
Labor induction with Balloon catheter, number of women (150 mg, n = 85): 37
Number of patients with operative delivery (150 mg, n = 85): 41
Labor induced with PGE-1, % of women (150 mg, n = 85): 8.2%
Fetal distress as indication for operative delivery (ODFD), % of women (150 mg, n = 85): 23.5%
patients with operative delivery, % (150 mg, n = 85): 48.2%
Labor induced with oxytocin, % of women (150 mg, n = 85, placebo 54.5%): 44.7%
Labor induced with amniotomy, % of women (150 mg, n = 85): 45.9%
Labor induction with Balloon catheter, % of women (150 mg, n = 85): 43.5%
Labor induced, % of women (150 mg, n = 85): 56.5%
women needing instrumental delivery (FIG. 4, vaginal mode of partus) (150 mg, women with spontaneous onset of labor, 9 of the 32 women, p-value 0.422): 28.1%
women needing instrumental delivery or caesarian section to reach partus (FIG. 5) (150 mg, women with spontaneous onset of labor, 13 of 36 women): 36.1%
women reaching partus by vaginal delivery with no need for instrumental delivery nor caesarian section (FIG. 5) (150 mg, women with spontaneous onset of labor, 23 of 36 women): 63.9%
time point of spontaneous onset of labor (FIG. 3, change of Bishop score) (300 mg and 150 mg, women with spontaneous onset of labor): achieved spontaneous onset of labor at an earlier time point than women treated with 75 mg tafoxiparin and placebo
women achieving spontaneous onset of labor (FIG. 1) (300 mg s.c. once daily up to 7 doses, 37 women of 90, p-value=0.089 (part A 0.080), placebo 28.7%): 41.1%
development day-by-day towards a spontaneous onset of labor (300 mg, 150 mg, 75 mg, Table 3): shows a dose-response relationship
women reaching spontaneous onset of labor with uncomplicated delivery (300 mg, 27 of the 33 women, placebo 54.5%): 81.8%
number of subjects (women) that reach spontaneous onset of labor (300 mg, Study day 1): 2
subjects (women) that reach spontaneous onset of labor, % of n (300 mg, Study day 1): (5%)
number of subjects (women) that reach spontaneous onset of labor (300 mg, Study day 2): 11
subjects (women) that reach spontaneous onset of labor, % of n (300 mg, Study day 2): (30%)
number of subjects (women) that reach spontaneous onset of labor (300 mg, Study day 3): 18
subjects (women) that reach spontaneous onset of labor, % of n (300 mg, Study day 3): (49%)
number of subjects (women) that reach spontaneous onset of labor (300 mg, Study day 4): 23
subjects (women) that reach spontaneous onset of labor, % of n (300 mg, Study day 4): (62%)
number of subjects (women) that reach spontaneous onset of labor (300 mg, Study day 5): 30
subjects (women) that reach spontaneous onset of labor, % of n (300 mg, Study day 5): (81%)
number of subjects (women) that reach spontaneous onset of labor (300 mg, Study day 6): 34
subjects (women) that reach spontaneous onset of labor, % of n (300 mg, Study day 6): (92%)
number of subjects (women) that reach spontaneous onset of labor (300 mg, Study day 7): 37
subjects (women) that reach spontaneous onset of labor, % of n (300 mg, Study day 7): (100%)
Fetal distress as indication for operative delivery (ODFD), number of women (300 mg, n = 91): 11
Labor induced with PGE-1, number of women (300 mg, n = 91): 5
Labor induced with amniotomy, number of women (300 mg, n = 91): 50
Labor induced with oxytocin, number of women (300 mg, n = 91): 45
Labor induced, number of women (300 mg, n = 91): 53
Labor induction with Balloon catheter, number of women (300 mg, n = 91): 42
Number of patients with operative delivery (300 mg, n = 91): 32
Labor induced with PGE-1, % of women (300 mg, n = 91): 5.5%
Fetal distress as indication for operative delivery (ODFD), % of women (300 mg, n = 91): 12.1%
patients with operative delivery, % (300 mg, n = 91): 35.2%
Labor induced with oxytocin, % of women (300 mg, n = 91, placebo 54.5%): 49.5%
Labor induced with amniotomy, % of women (300 mg, n = 91): 54.9%
Labor induction with Balloon catheter, % of women (300 mg, n = 91): 46.2%
Labor induced, % of women (300 mg, n = 91): 58.2%
women needing instrumental delivery (FIG. 4, vaginal mode of partus) (300 mg, women with spontaneous onset of labor, 6 of the 33 women, p-value=0.048 (part A 0.053)): 18.2%
women needing instrumental delivery or caesarian section to reach partus (FIG. 5) (300 mg, women with spontaneous onset of labor, 10 of the 37 women): 27%
women reaching partus by vaginal delivery with no need for instrumental delivery nor caesarian section (FIG. 5) (300 mg, women with spontaneous onset of labor, 27 of the 37 women): 73%
effect on achieving spontaneous onset of labor (all three doses 300 mg, 150 mg and 75 mg): effective for achieving spontaneous onset of labor
effect on mode of partus (all three doses 300 mg, 150 mg and 75 mg, compared to placebo): effective for a person to reach partus by vaginal delivery and with less need for instrumental delivery or caesarian section
effect on need for instrumental delivery (all three doses (300 mg, 150 mg and 75 mg), women with spontaneous onset of labor, compared to placebo): effective in reducing the need for instrumental delivery
effect on need for intervention to achieve onset of labor (all three doses, compared to placebo): reduced the need for intervention in order to achieve onset of labor
time point of achieving a ripe cervix (any one of the three doses 75 mg, 150 mg and 300 mg, vs placebo): achieve a ripe cervix at an earlier time point than women that have been treated with placebo
need for operative delivery (caesarean section and instrumental delivery) due to fetal distress (conclusion of the clinical study): reduction of the need for operative delivery
effect on cervical ripening (FIG. 3) (doses 300 mg and 150 mg): beneficial effect on cervical ripening
estimated cervical ripening rate measured by Bishop score (FIG. 6) (first 7 days of treatment, all three doses (300 mg, 150 mg and 75 mg) compared to placebo): higher
labor time up to vaginal delivery (partus) (FIG. 2, Kaplan-Meier) (women with spontaneous onset of labor, 300 mg (p=0.070), 150 mg (p 0.654), 75 mg (p 0.114) vs placebo): shorter labor time up to vaginal delivery (partus) compared to placebo

— patent US12611423B2, “Medical use of tafoxiparin” (DILAFOR AB, priority 2022, dated 2026)
